Assay results: patent publication US5656629A, “6-substituted pyrazolo (3,4-d)pyrimidin-4-ones and compositions and methods of use thereof” (Sanofi Winthrop, Inc., priority 1995, dated 1997)

Legend:
[1] = molecular target: T1, cGMP-PDE V (Homo sapiens, UniProt O76074); test: cGMP-PDE V inhibition (isozyme isolated from cardiovascular tissue); type: biochemical, various animal species and man; settings: for inhibition at 1 µM / inhibition at 10 µM / inhibition at 0.01 µM / inhibition at 0.1 µM: read-out: Percent Inhibition cGMP-PDE V
T1 construct: isolated from cardiovascular tissues (heart and aorta); from tissue; host or cells: cardiovascular tissues (heart and aorta)
From the text: The cGMP-PDE and other PDE isozymes were isolated from cardiovascular tissues (heart and aorta) of various animal species and man by anion-exchange and affinity chromatography as described by Silver et al., Sec. Messeng. Phos. […] Cyclic Nucleotide Res. 10:69-92.

[2] = tested on: Spontaneously hypertensive rats (SHR); test: antihypertensive activity in conscious spontaneously hypertensive rats (mean arterial pressure); type: in vivo; settings: Rattus norvegicus, SHR iv; for ED25: 5 min, 5 min after dose, cumulative dosing, read-out: ED25, change in mean arterial pressure
Protocol: After a 2 day recovery from surgery, three baseline blood pressure measurements were made at 5 min intervals in conscious SHR. Compounds to be tested or vehicle were then administered intravenously in a dose-dependent manner (0.3-10 mg base/kg) while arterial pressure was recorded continuously on a polygraph. The mean arterial pressure response was measured 5 minutes after the administration of each dose of the test compound and the next dose given in a cumulative dose fashion. The response to each dose of the test compound was calculated as the difference from the mean of the three baseline measurements.

Compound `CCc1[nH]n(C2CCCC2)c2nc(Cc3cccc(OC)c3)nc(=O)c1-2` [Example 19, 1-cyclopentyl-3-ethyl-6-(3-methoxyphenylmethyl)pyrazolo[3,4-d]pyrimidin-4-one] has an IC50 [1] of 33 nM, an ED25 [2] of 11 mg/kg and a change in vivo at 10 mg/kg [2] of -21%.
Work on `CCc1nn(C2CCCC2)c2nc(CN3CCCc4ccccc43)[nH]c(=O)c12` [16(b), 1-cyclopentyl-3-ethyl-6-(1,2,3,4-tetrahydro-1-quinolinylmethyl)pyrazolo[3,4-d]pyrimidin-4-one] yielded an inhibition at 1 µM ([1]; 1 μM) of 32% and an inhibition at 10 µM ([1]; 10 μM) of 90%.
For “1-cyclopentyl-3-ethyl-6-[3,5-dimethylamino-4-hydroxyphenylmethyl]pyrazolo[3,4-d]pyrimidin-4-one [Example 14]”, the “Percent Inhibition cGMP-PDE V” value ([1]; 1 μM) was 28% and the “Percent Inhibition cGMP-PDE V” value ([1]; 10 μM) was 77%.
`CCc1[nH]n(C2CCCC2)c2nc(Cc3cccs3)nc(=O)c1-2` [Example 32, 1-cyclopentyl-3-ethyl-6-(2-thienylmethyl)pyrazolo[3,4-d]pyrimidin-4-one] showed an inhibition at 0.01 µM [1] of 24%, an inhibition at 0.1 µM [1] of 58% and an inhibition at 1 µM ([1]; 1 μM) of 89%.
Compound `CCc1nn(C2CCCC2)c2nc(Cc3ccc(OCCN4CCOCC4)cc3)[nH]c(=O)c12` [10(b)] has an IC50 [1] of 270 nM and a change in vivo at 10 mg/kg [2] of -17%.
`CCc1[nH]n(C2CCCC2)c2nc(Cc3ccc(N(C)C)cc3)nc(=O)c1-2` [Example 35, 1-cyclopentyl-3-ethyl-6-(4-dimethylaminophenylmethyl)pyrazolo[3,4-d]pyrimidin-4-one] was tested, and the inhibition at 0.1 µM [1] was 34% and the inhibition at 1 µM ([1]; 1 μM) was 53%.
Compound `CCc1nn(C2CCCC2)c2nc(Cn3cccc3)[nH]c(=O)c12` [Example 5, 1-cyclopentyl-3-ethyl-6-(1-pyrrolylmethyl)-pyrazolo[3,4-d]pyrimidin-4-one] has an IC50 [1] of 310 nM.
Compound `CCc1[nH]n(C2CCCC2)c2nc(CN3CCc4ccccc4C3)nc(=O)c1-2` [15(c), 1-cyclopentyl-3-ethyl-6-(1,2,3,4-tetrahydro-2-isoquinolinylmethyl)pyrazolo[3,4-d]pyrimidin-4-one] has an IC50 [1] of 1770 nM.
`CCc1[nH]n(C2CCCC2)c2nc(Cc3ccsc3)nc(=O)c1-2` [Example 31, 1-cyclopentyl-3-ethyl-6-(3-thienylmethyl)pyrazolo[3,4-d]pyrimidin-4-one] showed an IC50 [1] of 30 nM.
In the case of `CCc1[nH]n(C2CCCC2)c2nc(Cc3ccc(OC(=O)c4ccc(CN(CC)CC)cc4)cc3)nc(=O)c1-2` [33(b), 1-cyclopentyl-3-ethyl-6-[4-[4-(diethylaminomethyl)phenylcarbonyloxy]phenylmethyl]pyrazolo[3,4-d]pyrimidin-4-one], the inhibition at 0.1 µM [1] is reported as 56%, the ED25 [2] is reported as 9.3 mg/kg and the change in vivo at 10 mg/kg [2] is reported as -27%.
`CCc1[nH]n(C2CCCC2)c2nc(Cc3c(C)noc3C)nc(=O)c1-2` [28(b), 1-cyclopentyl-3-ethyl-6-(3,5-dimethyl-4-isoxazolylmethyl)pyrazolo[3,4-d]pyrimidin-4-one] was tested, and the inhibition at 1 µM ([1]; 1 μM) was 48%.
Work on `CCc1[nH]n(C2CCCC2)c2nc(Cc3ccc(OC)c(OC)c3)nc(=O)c1-2` [3(b), 1-cyclopentyl-3-ethyl-6-(3,4-dimethoxyphenylmethyl)-pyrazolo[3,4-d)pyrimidin-4-one] yielded an IC50 [1] of 22 nM.
`CCc1[nH]n(C2CCCC2)c2nc(Cc3ccc(C(F)(F)F)cc3)nc(=O)c1-2` [24(b), 1-cyclopentyl-3-ethyl-6-(4-trifluoromethylphenylmethyl) pyrazolo[3,4-d]pyrimidin-4-one] gave an IC50 [1] of 180 nM and a change in vivo at 10 mg/kg [2] of -8%.
`CCc1nn(C2CCCC2)c2nc(Cn3cccn3)[nH]c(=O)c12` [23(b), 1-cyclopentyl-3-ethyl-6-(1-pyrazolylmethyl)pyrazolo[3,4-d]pyrimidin-4-one] was tested, and the inhibition at 1 µM ([1]; 1 μM) was 33%.
`CCc1[nH]n(C2CCCC2)c2nc(Cc3ccccc3O)nc(=O)c1-2` [Example 30, 1-cyclopentyl-3-ethyl-6-(2-hydroxyphenylmethyl)pyrazolo[3,4-d]pyrimidin-4-one] was tested, and the inhibition at 0.1 µM [1] was 43% and the inhibition at 1 µM ([1]; 1 μM) was 73%.
With `CCc1[nH]n(C2CCCC2)c2nc(Cc3ccncc3)nc(=O)c1-2` [4(b), 1-cyclopentyl-3-ethyl-6-(4-pyridinylmethyl)pyrazolo[3,4-d]pyrimidin-4-one] the IC50 [1] was 650 nM.
Work on `CCc1[nH]n(C2CCCC2)c2nc(Cc3cccn3C)nc(=O)c1-2` [Example 22, 1-cyclopentyl-3-ethyl-6-(1-methyl-2-pyrrolylmethyl)pyrazolo[3,4-d]pyrimidin-4-one] yielded an IC50 [1] of 300 nM.
For `CCc1nn(C2CCCC2)c2nc(Cc3cccc(OCCN4CCOCC4)c3)[nH]c(=O)c12` [21(c), 1-cyclopentyl-3-ethyl-6-[3-[2-(4-morpholinyl)ethoxy]phenylmethyl]pyrazolo[3.4-d]pyrimidin-4-one], the IC50 [1] was 420 nM.
`CCc1[nH]n(C2CCCC2)c2nc(CO)nc(=O)c1-2` [Example 17, 1-cyclopentyl-3-ethyl-6-(hydroxymethyl)pyrazolo[3,4-d]pyrimidin-4-one] gave an inhibition at 1 µM ([1]; 1 μM) of 20% and an inhibition at 10 µM ([1]; 10 μM) of 61%.
In the case of `CCc1[nH]n(C2CCCC2)c2nc(Cc3ccc(NS(C)(=O)=O)cc3)nc(=O)c1-2` [Example 29, 1-cyclopentyl-3-ethyl-6-[4-(methylsulfonylamino)phenylmethyl]pyrazolo[3,4-d]pyrimidin-4-one], the inhibition at 0.01 µM [1] is reported as 77% and the inhibition at 0.1 µM [1] is reported as 94%.
`CCc1[nH]n(C2CCCC2)c2nc(Cc3ccccc3N)nc(=O)c1-2` [Example 34, 1-cyclopentyl-3-ethyl-6-(2-aminophenylmethyl)pyrazolo[3,4-d]pyrimidin-4-one] showed an inhibition at 0.1 µM [1] of 45% and an inhibition at 1 µM ([1]; 1 μM) of 78%.
`CCc1[nH]n(C2CCCC2)c2nc(Cc3ccccn3)nc(=O)c1-2` [Example 9, 1-cyclopentyl-3-ethyl-6-(2-pyridinylmethyl)pyrazolo[3,4-d]pyrimidin-4-one] was tested, and the IC50 [1] was 540 nM.
For `CCc1[nH]n(C2CCCC2)c2nc(Cc3ccc(OCC(=O)O)cc3)nc(=O)c1-2` [8(b), 1-cyclopentyl-3-ethyl-6-[4-(carboxymethoxy)phenylmethyl]pyrazolo[3,4-d]pyrimidin-4-one], the IC50 [1] was 1200 nM.
`CCc1[nH]n(C2CCCC2)c2nc(Cc3ccccc3OC)nc(=O)c1-2` [27(b), 1-cyclopentyl-3-ethyl-6-(2-methoxyphenylmethyl)pyrazolo[3,4-d]pyrimidin-4-one] showed an inhibition at 0.1 µM [1] of 25% and an inhibition at 1 µM ([1]; 1 μM) of 73%.
In the case of `CCc1[nH]n(C2CCCC2)c2nc(Cc3ccc(OCc4nnn[nH]4)cc3)nc(=O)c1-2` [11(b), 1-cyclopentyl-3-ethyl-6-[4-(5-tetrazolylmethoxy)phenylmethyl]pyrazolo[3,4-d]pyrimidin-4-one], the IC50 [1] is reported as 310 nM and the change in vivo at 10 mg/kg [2] is reported as -4%.
In the case of `CCc1[nH]n(C2CCCC2)c2nc(Cc3cccnc3)nc(=O)c1-2` [Example 13, 1-cyclopentyl-3-ethyl-6-[3-pyridinylmethyl]pyrazolo[3,4-d]pyrimidin-4-one], the IC50 [1] is reported as 660 nM.
With `CCc1[nH]n(C2CCCC2)c2nc(Cc3cccc(O)c3)nc(=O)c1-2` [Example 20, 1-cyclopentyl-3-ethyl-6-(3-hydroxyphenylmethyl)pyrazolo[3,4-d]pyrimidin-4-one] the IC50 [1] was 86 nM, the ED25 [2] was 10.1 mg/kg and the change in vivo at 10 mg/kg [2] was -23%.
Work on `Cc1[nH]n(C(C)(C)C)c2nc(Cc3ccccc3)nc(=O)c1-2` [37(d), 1-tert-butyl-3-methyl-6-(phenylmethyl)pyrazolo[3,4-d]pyrimidin-4-one] yielded an inhibition at 0.1 µM [1] of 36% and an inhibition at 1 µM ([1]; 1 μM) of 78%.
`CCc1[nH]n(C2CCCC2)c2nc(Nc3ccccc3)nc(=O)c1-2` [38(d), 1-cyclopentyl-3-ethyl-6-(phenylamino)pyrazolo[3,4-d]pyrimidin-4-one] showed an IC50 [1] of 270 nM.
Work on `CCc1[nH]n(C2CCCC2)c2nc(Cc3ccc(-n4ccnc4)cc3)nc(=O)c1-2` [36(b), 1-cyclopentyl-3-ethyl-6-[4-(1-imidazolyl)phenylmethyl]pyrazolo[3,4-d]pyrimidin-4-one] yielded an inhibition at 0.1 µM [1] of 26% and an inhibition at 1 µM ([1]; 1 μM) of 62%.
Compound `CCc1[nH]n(C2CCCC2)c2nc(Oc3ccccc3)nc(=O)c1-2` [Example 39, 1-cyclopentyl-3-ethyl-6-(phenyloxy)pyrazolo[3,4-d]pyrimidin-4-one] has an inhibition at 0.1 µM [1] of 33% and an inhibition at 1 µM ([1]; 1 μM) of 74%.
`CCc1nn(C2CCCC2)c2nc(Cn3ccnc3)[nH]c(=O)c12` [18(b), 1-cyclopentyl-3-ethyl-6-(1-imidazolylmethyl)pyrazolo[3,4-d]pyrimidin-4-one] showed an inhibition at 1 µM ([1]; 1 μM) of 33%.
`CCc1[nH]n(C2CCCC2)c2nc(Cc3ccc([N+](=O)[O-])cc3)nc(=O)c1-2` [25(a), 1-cyclopentyl-3-ethyl-6-(4-nitrophenylmethyl)pyrazolo[3,4-d]pyrimidin-4-one] was tested, and the IC50 [1] was 76 nM and the change in vivo at 10 mg/kg [2] was -5%.
For `CCc1nn(C2CCCC2)c2nc(Cn3cnc4ccccc43)[nH]c(=O)c12` [12(b), 1-cyclopentyl-3-ethyl-6-[1-benzimidazolylmethyl]pyrazolo[3,4-d]pyrimidin-4-one], the inhibition at 0.1 µM [1] was 17% and the inhibition at 1 µM ([1]; 1 μM) was 39%.
